Data set [1] has as its system Leishmania infantum (L. chagasi syn.) promastigotes. The data set can be described thus: In vitro antileishmanial drug assay, L. infantum promastigotes. It counts as cell-based, Leishmania infantum (syn. chagasi) MCAN/BR/97/P142 strain. The note with it: for IC50: Leishmania infantum, promastigotes, 24 h, 26 °C, mean ± S.D. of three determinations; for S.I (selectivity index: CC50 drug/IC50 drug), Leishmania infantum: CC50 on murine peritoneal cells / IC50 on L. infantum promastigotes. Here is the method:
(§1) Parasites in metacyclic phase (4 × 10^6 parasites/mL) were incubated with the derivatives (40–160 mg/mL) solubilized in dimethyl sulphoxide (DMSO, Sigma Chemical Co., St. Louis, MO, USA) at 26 °C for 24 h. The results were expressed as IC50/24 h, the concentration of a compound that caused a 50% reduction in survival/viability compared with non-treated culture. Pentamidine was used as reference drug and all tests were carried out in triplicate. Promastigotes of L. amazonensis (MHOM/BR/77/LTB0016 strain) and L. infantum (syn. chagasi) (MCAN/BR/97/P142 strain) were grown in Schneider’s insect medium (Sigma) at 26 °C in pH 7.2 supplemented with 10–20% (v/v) heat-inactivated fetal calf serum.

In data set [2] the test system is Leishmania amazonensis promastigotes. Briefly: In vitro antileishmanial drug assay, L. amazonensis promastigotes. It is filed as cell-based, Leishmania amazonensis MHOM/BR/77/LTB0016 strain. As to conditions: for IC50: Leishmania amazonensis, promastigotes, 24 h, 26 °C, mean ± S.D. of three determinations; for S.I (selectivity index: CC50 drug/IC50 drug), Leishmania amazonensis: CC50 on murine peritoneal cells / IC50 on L. amazonensis promastigotes. On the procedure:
as §1

The nature of data set [3]: In vitro cytotoxicity (MTT). It counts as cell-based, BALB/c mice. As to conditions: BALB/c, mouse, murine peritoneal adherent cells. Here is the method:
The BALB/c mice from Laboratory Animals Nucleus (UFF) were sacrificed to obtain peritoneal cells and for both infection and isolation of Leishmania. The protocol assays was approved by the Institutional Committee of the Center for Biological Evaluation and Care of Research Animals (CEUA-UFF).
BALB/c mice peritoneal cavity cells (4 × 10^5cells/well) were incubated with the derivatives (10, 20, 40 and 80 µg/mL) in 96 wells plate for 24 h in […] RPMI 1640 medium, supplemented with 1 mmol·L^−1L-glutamine, […], penicillin G (10^5 IU·L^−1) and streptomycin sulfate (0.10 g·L^−1) at 37 °C in a humidified 5% CO2 atmosphere. After that, 3-[4,5-dimethylthiazol-2-yl]-2,5-diphenyltetrazolium bromide, MTT (Sigma) was added and the reaction was interrupted with DMSO after 2 h. The results were determined in 540 nm by using a MicroQuant spectrophotometer (Biotek-Instrument Inc., Winooski, VT, USA). All assays were repeated at least four times in quadruplicate. The cytotoxicity profile was expressed as CC50/24 h, the concentration of a compound that caused cytotoxicity compared to non-treated cultures. Index of selectivity (IS) was defined as the ratio of the CC50 value on the macrophage to the IC50 value on the L. amazonensis or L. infantum strains (promastigotes).

A word on the IC50: it is the concentration at which inhibition is half-maximal. The term CC50 denotes the concentration at which the toxic effect on the cells reaches its halfway point. For the compound `N=C(N)c1ccc(OCCCCCOc2ccc(C(=N)N)cc2)cc1` [Pentamidine, reference compound], the results for the IC50 in data set [1] and in data set [2] were 62 µM and 21 µM, respectively. Further, in data set [3], the CC50 at 24 h is 54 µM.
As to `Cc1nn(-c2ccc(S(N)(=O)=O)cc2)c(Cl)c1Br` [Compound 3a, 4-(4-Bromo-5-chloro-3-methyl-1H-pyrazol-1-yl)benzenesulfonamide], in data set [1], the “S.I (selectivity index: CC50 drug/IC50 drug), Leishmania infantum” value was found to be 0.78 and the IC50 stood at 228 ± 190 µM. In data set [2], the “S.I (selectivity index: CC50 drug/IC50 drug), Leishmania amazonensis” value is recorded as 0.78 and the half-inhibitory concentration (IC50) is 228 ± 330 µM.
For the compound `Cc1nn(-c2ccc(S(=O)(=O)Nc3ccc(Br)cc3)cc2)c(Cl)c1Br` [Compound 3d, 4-(4-Bromo-5-chloro-3-methyl-1H-pyrazol-1-yl)-N-(4-bromophenyl)benzenesulfonamide], in data set [1], the “S.I (selectivity index: CC50 drug/IC50 drug), Leishmania infantum” value is listed as 0.49 and 99 ± 80 µM corresponded to half-maximal inhibition (IC50). In data set [2], the “S.I (selectivity index: CC50 drug/IC50 drug), Leishmania amazonensis” value is given as 0.65 and half-maximal inhibition (IC50) was put at 75 ± 10 µM.
Taken in the same sequence, the figures for `Cc1ccc(S(=O)(=O)Nc2ccc(-n3nc(C)cc3Cl)cc2)cc1` [Compound 3g, N-[4-(5-Chloro-3-methyl-1H-pyrazol-1-yl)phenyl]-4-methylbenzenesulfonamide] were 1.21, 149 ± 120 µM, 1.33 and 136 ± 54 µM.
The corresponding values for `Cc1ccc(NS(=O)(=O)c2ccc(-n3nc(C)c(Br)c3Cl)cc2)cc1` [Compound 3c, 4-(4-Bromo-5-chloro-3-methyl-1H-pyrazol-1-yl)-N-(4methylphenyl)benzenesulfonamide] are 1.33, 123 ± 50 µM, 0.51 and 318 ± 590 µM.
As for `Cc1nn(-c2ccc(S(=O)(=O)Nc3ccc(Cl)cc3)cc2)c(Cl)c1Br` [Compound 3e, 4-(4-Bromo-5-chloro-3-methyl-1H-pyrazol-1-yl)-N-(4-chlorophenyl)benzenesulfonamide], in data set [1], the “S.I (selectivity index: CC50 drug/IC50 drug), Leishmania infantum” value was found to be 1.78 and half-maximal inhibition (IC50) required 65 ± 40 µM. Moreover, in data set [2], the “S.I (selectivity index: CC50 drug/IC50 drug), Leishmania amazonensis” value amounted to 1.61 and 72 ± 50 µM corresponded to half-maximal inhibition (IC50). Moreover, half-maximal cytotoxicity in data set [3] (CC50 at 24 h) was put at 116 µM.
As for `Cc1cc(Cl)n(-c2ccc(NS(=O)(=O)c3ccccc3)cc2)n1` [Compound 3f, N-[4-(5-Chloro-3-methyl-1H-pyrazol-1-yl)phenyl]benzenesulfonamide], in data set [1], the “S.I (selectivity index: CC50 drug/IC50 drug), Leishmania infantum” value stood at 0.76 and the concentration for half-maximal inhibition (IC50) came out at 138 ± 110 µM. Further, in data set [2], the “S.I (selectivity index: CC50 drug/IC50 drug), Leishmania amazonensis” value was 0.68 and half-maximal inhibition (IC50) required 153 ± 220 µM.
On to `Cc1nn(-c2ccc(S(=O)(=O)Nc3ccccc3)cc2)c(Cl)c1Br` [Compound 3b, 4-(4-Bromo-5-chloro-3-methyl-1H-pyrazol-1-yl)-N-phenylbenzenesulfonamide], for which, in data set [1], the “S.I (selectivity index: CC50 drug/IC50 drug), Leishmania infantum” value amounted to 2.44 and the 50% inhibitory concentration (IC50) turned out to be 59 ± 10 µM. Also, in data set [2], the “S.I (selectivity index: CC50 drug/IC50 drug), Leishmania amazonensis” value came out at 2.05 and half-maximal inhibition (IC50) required 70 ± 20 µM. Further, the cytotoxic concentration (CC50) at 24 h in data set [3] amounted to 144 µM.

The values above are taken from article PMC6269060, “4-(1H-Pyrazol-1-yl) Benzenesulfonamide Derivatives: Identifying New Active Antileishmanial Structures for Use against a Neglected Disease” (Molecules, 2012).
